Test: Biochemical Assay : 5 μl WT full length PAICS (final assay concentration, fac, 2.5 nM) in basic buffer, added to black, non-binding, 384-well plates (Corning #3575), columns 1 to 22. 5 μl basic buffer was added to columns 23+24 (negative control). PAICS stock at 31.9 μM from the PI's lab (Steve Firestine). Basic buffer contained 50 mM Tris-HCl pH8 and 0.5 mM EDTA, fac.1 μl compound in 100% DMSO added per well, or 1 μl 100% DMSO to positive controls (columns 1+2) and negative controls (columns 23+24). Final assay top concentration of compound either 1 mM or 30-μM, serially diluted with half-log dilutions across the plate in duplicate (one 10-point concentration response curve across wells 3 to 12, another across 13 to 22). Compounds pre-incubated with PAICS enzyme for 30 mins at RT. 2 μl CAIR added (fac 10 μM) in basic buffer plus 25 mM MgCl2 and 50 mM KHCO3 fac to all wells. CAIR stock 50 mM from Steve Firestine's lab. 1 hr RT incubation for AIR-CAIR equilibration. NB: ˜50% CAIR is decarboxylated during equilibration therefore 5 μM remains for the synthetase reaction.2 μl ATP/aspartic acid added (fac 30 μM/180 μM) in reaction buffer to all wells. 30 mins RT incubation for appropriate level of ATP turnover. […]

**Q.** For Nc1nc(C(=O)Nc2cc(N3CCN(C(=O)OCC4CNC4)CC3)ccc2Cl)co1, which IC50 is on record?
**A.** > 0.1 µM

From ChEMBL document CHEMBL5728360, “Oxazole derivatives for use in the treatment of cancer” (2021)
